Molecules are shown by their SMILES.

The target in test [1] is T1, HCV NS3/4A protease complex, H77 strain (1a genotype) (Hepatitis C virus genotype 1a, UniProt P27958, C1454S/C1711G).
T1 construct: DNA encoding the recombinant HCV NS3/4A protease complex (amino acids 1027 to 1711) for these strains; made in house; host or cells: Escherichia coli BL21 (DE3), pET21b
Put plainly: FRET peptide assay to monitor HCV NS3/4A proteolytic activity (H77 strain). It is filed as biochemical. Conditions: read-out: IC50 against NS3/4A H77 strain. From the text:
(§1) HCV NS3 protease complexes, derived from the BMS strain, H77 strain or J4L6S strain, were generated, as described below. These purified recombinant proteins were generated for use in a homogeneous assay (see below) to provide an indication of how effective compounds of the present disclosure would be in inhibiting HCV NS3 proteolytic activity.
(§2) Serum from an HCV-infected patient was obtained from Dr. T. Wright, San Francisco Hospital. An engineered full-length cDNA (compliment deoxyribonucleic acid) template of the HCV genome (BMS strain) was constructed from DNA fragments obtained by reverse transcription-PCR(RT-PCR) of serum RNA (ribonucleic acid) and using primers selected on the basis of homology between other genotype la strains. From the determination of the entire genome sequence, a genotype la was assigned to the HCV isolate according to the classification of Simmonds et al. (See P Simmonds, K A Rose, S Graham, S W Chan, F McOmish, B C Dow, E A Follett, P L Yap and H Marsden, J. Clin. Microbiol., 31(6), 1493-1503 (1993)). […]

For test [2], the target named is T2, HCV NS3/4A protease complex, J4L6S strain (1b genotype) (Hepatitis C virus genotype 1b, UniProt O92972, C1454S/C1711G).
T2 construct: DNA encoding the recombinant HCV NS3/4A protease complex (amino acids 1027 to 1711) for these strains; made in house; host or cells: Escherichia coli BL21 (DE3), pET21b
T2 sequence (O92972 1027-1711 C1454S/C1711G, one chain of several): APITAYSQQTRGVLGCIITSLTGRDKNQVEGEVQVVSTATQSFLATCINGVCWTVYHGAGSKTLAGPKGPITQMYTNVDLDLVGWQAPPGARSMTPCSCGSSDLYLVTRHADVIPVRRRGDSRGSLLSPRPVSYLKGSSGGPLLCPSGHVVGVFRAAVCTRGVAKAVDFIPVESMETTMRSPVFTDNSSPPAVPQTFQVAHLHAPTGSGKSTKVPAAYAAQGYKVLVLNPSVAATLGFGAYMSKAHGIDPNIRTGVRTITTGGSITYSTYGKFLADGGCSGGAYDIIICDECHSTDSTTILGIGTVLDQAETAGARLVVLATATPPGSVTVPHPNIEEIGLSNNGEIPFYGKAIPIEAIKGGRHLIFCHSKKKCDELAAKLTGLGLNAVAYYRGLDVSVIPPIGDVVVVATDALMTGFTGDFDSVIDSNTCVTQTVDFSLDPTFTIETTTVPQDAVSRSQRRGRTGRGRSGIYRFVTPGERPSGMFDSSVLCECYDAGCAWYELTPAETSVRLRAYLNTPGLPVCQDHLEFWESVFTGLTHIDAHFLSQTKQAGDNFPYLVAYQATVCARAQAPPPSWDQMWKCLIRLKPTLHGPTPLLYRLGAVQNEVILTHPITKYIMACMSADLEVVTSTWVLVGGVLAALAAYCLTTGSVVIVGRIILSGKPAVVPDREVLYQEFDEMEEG
As to the kind of experiment: FRET peptide assay to monitor HCV NS3/4A proteolytic activity (J4L6S strain). It is filed as biochemical. To be noted: read-out: IC50 against NS3/4A J4L6S strain.
From the text: as §1, §2

T1 sequence (P27958 1027-1711 C1454S/C1711G, one chain of several): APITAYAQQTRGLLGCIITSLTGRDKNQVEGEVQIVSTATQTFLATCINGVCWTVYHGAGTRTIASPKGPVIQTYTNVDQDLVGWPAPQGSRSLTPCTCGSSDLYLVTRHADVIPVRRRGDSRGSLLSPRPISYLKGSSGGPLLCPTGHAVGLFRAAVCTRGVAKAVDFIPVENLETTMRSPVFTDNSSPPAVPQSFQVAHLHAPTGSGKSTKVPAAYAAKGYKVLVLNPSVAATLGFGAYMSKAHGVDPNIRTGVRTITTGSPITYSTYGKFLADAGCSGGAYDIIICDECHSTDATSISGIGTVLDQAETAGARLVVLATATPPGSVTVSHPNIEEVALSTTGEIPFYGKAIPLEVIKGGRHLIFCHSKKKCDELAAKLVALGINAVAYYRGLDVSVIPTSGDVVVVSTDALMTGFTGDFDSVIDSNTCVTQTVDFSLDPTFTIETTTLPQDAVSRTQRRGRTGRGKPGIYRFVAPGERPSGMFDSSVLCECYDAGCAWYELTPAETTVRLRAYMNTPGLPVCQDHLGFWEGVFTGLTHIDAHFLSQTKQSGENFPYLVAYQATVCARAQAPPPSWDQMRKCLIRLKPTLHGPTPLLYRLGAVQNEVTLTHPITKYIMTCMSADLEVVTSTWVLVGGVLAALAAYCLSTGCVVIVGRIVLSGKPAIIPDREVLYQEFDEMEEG

As for `C=C[C@@H]1C[C@]1(NC(=O)[C@@H]1C[C@@](O)(c2ccc(-c3ccccc3)cc2)CN1C(=O)[C@@H](NC(=O)OC(C)(C)C)C(C)(C)C)C(=O)NS(=O)(=O)C1CC1` [Compound 3], the IC50 in test [1] was determined as 1.6 nM; in test [2], 1.1 nM.

Values taken from patent publication US7888464B2, “Hepatitis C virus inhibitors” (Bristol-Myers Squibb Company, priority 2006, dated 2011).
